# Key:
# GSPT1 = assay: Western blot, degradation of substrate protein in hPBMCs; format: cell-based, Human
# [1] = system: Human myeloid monocytic leukemia cell (MV-4-11); assay: Tumor cell proliferation inhibition (CellTiter-Meiluncell luminescent cell viability assay); conditions: MV4-11, 96 h; for inhibition at 0.01 µM: read-out: Inhibition Rate at 10 nM (%); for inhibition at 0.5 µM: read-out: Inhibition Rate at 500 nM (%)
# IKZF1 = target: T1, IKZF1 (Homo sapiens, UniProt Q13422+Q96SW2); assay: Western blot, degradation of substrate protein in hPBMCs; format: cell-based
# T1 construct: effects of the compounds of the present disclosure on the expression of target proteins in cells; endogenous in cells; host or cells: human PBMCs (Milecell Biotechnologies)
# T1 sequence (Q13422 whole entry): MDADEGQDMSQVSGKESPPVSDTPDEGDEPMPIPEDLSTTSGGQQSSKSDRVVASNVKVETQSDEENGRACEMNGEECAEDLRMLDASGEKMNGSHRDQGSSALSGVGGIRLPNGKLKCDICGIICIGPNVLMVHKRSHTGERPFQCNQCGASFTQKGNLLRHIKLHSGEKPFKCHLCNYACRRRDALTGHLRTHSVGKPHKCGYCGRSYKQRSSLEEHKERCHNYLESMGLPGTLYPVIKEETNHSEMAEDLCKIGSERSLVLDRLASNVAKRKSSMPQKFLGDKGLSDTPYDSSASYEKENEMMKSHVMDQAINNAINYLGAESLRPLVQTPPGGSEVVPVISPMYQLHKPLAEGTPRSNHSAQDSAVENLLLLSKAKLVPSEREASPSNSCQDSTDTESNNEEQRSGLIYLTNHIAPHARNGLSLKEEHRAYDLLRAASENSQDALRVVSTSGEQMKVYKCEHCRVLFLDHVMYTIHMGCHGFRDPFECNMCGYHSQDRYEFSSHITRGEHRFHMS
# T1 sequence (Q96SW2 whole entry): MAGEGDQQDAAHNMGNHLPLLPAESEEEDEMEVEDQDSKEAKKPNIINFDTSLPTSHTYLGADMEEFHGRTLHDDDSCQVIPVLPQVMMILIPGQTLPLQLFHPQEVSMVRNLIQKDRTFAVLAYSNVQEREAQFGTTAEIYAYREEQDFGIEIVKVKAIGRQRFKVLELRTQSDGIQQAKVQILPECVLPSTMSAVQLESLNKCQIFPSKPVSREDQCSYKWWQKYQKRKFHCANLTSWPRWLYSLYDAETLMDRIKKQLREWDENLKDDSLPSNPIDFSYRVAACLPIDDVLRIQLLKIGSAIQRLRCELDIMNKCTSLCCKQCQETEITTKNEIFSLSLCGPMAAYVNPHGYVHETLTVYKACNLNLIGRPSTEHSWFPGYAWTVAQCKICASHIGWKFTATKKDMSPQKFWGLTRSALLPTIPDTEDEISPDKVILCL
# T1 sequence (Q16531 whole entry partner): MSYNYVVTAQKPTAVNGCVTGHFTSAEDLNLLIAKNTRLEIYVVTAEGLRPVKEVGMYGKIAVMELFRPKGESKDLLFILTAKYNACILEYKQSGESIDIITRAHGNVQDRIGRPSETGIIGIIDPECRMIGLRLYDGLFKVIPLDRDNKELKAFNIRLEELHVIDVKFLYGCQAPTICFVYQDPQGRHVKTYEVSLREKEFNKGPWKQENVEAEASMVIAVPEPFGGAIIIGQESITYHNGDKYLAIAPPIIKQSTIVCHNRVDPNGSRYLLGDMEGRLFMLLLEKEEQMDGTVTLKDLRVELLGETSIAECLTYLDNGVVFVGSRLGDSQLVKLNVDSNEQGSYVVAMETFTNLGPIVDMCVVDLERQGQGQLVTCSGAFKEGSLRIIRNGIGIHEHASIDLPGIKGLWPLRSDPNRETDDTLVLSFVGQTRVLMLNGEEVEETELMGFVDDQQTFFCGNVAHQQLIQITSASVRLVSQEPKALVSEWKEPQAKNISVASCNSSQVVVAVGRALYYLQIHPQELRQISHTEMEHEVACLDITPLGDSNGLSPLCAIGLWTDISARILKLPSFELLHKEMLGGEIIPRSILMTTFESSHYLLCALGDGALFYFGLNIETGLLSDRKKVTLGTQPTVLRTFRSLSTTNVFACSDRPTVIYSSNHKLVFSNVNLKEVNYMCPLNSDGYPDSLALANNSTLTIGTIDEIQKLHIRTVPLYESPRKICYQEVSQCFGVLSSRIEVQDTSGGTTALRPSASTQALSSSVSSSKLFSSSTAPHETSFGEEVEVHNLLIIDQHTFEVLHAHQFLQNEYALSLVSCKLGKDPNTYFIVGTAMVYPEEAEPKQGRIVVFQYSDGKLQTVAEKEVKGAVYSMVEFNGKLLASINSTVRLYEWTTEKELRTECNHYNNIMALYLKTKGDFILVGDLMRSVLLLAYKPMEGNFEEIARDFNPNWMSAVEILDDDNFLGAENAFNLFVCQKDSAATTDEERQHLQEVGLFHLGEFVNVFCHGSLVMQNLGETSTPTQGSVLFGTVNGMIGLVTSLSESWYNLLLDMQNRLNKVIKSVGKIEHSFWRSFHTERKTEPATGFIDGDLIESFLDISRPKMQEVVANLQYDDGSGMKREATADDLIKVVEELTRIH
# WEE1 = target: T2, WEE1 (Homo sapiens, UniProt P30291+Q96SW2); assay: as above; format: cell-based
# T2 construct: effects of the compounds of the present disclosure on the expression of target proteins in cells; endogenous in cells; host or cells: human PBMCs (Milecell Biotechnologies)
# T2 sequence (P30291 whole entry): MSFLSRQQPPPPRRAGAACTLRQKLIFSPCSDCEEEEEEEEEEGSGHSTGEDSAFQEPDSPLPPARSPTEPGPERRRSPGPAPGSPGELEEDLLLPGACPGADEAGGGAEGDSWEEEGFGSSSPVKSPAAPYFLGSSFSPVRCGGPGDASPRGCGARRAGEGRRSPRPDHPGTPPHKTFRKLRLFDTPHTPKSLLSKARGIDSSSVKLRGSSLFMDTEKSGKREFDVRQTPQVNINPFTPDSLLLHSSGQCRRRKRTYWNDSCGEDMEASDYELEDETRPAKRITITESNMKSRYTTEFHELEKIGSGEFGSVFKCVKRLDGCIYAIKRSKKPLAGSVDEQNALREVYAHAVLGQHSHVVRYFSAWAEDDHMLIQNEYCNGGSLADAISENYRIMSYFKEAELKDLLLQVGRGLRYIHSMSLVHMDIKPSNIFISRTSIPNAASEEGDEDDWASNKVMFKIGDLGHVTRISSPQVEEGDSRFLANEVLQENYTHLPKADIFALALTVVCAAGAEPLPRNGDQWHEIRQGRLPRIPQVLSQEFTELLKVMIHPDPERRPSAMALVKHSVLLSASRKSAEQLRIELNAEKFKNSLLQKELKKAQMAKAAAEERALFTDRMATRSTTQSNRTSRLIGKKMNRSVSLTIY
# T2 sequence (Q96SW2 whole entry): as the sequence (Q96SW2 whole entry) above
# T2 sequence (Q16531 whole entry partner): as the sequence (Q16531 whole entry partner) above
# IKZF3 = target: T3, IKZF3 (Homo sapiens, UniProt Q96SW2+Q9UKT9); assay: as above; format: cell-based
# T3 construct: effects of the compounds of the present disclosure on the expression of target proteins in cells; endogenous in cells; host or cells: human PBMCs (Milecell Biotechnologies)
# T3 sequence (Q9UKT9 whole entry): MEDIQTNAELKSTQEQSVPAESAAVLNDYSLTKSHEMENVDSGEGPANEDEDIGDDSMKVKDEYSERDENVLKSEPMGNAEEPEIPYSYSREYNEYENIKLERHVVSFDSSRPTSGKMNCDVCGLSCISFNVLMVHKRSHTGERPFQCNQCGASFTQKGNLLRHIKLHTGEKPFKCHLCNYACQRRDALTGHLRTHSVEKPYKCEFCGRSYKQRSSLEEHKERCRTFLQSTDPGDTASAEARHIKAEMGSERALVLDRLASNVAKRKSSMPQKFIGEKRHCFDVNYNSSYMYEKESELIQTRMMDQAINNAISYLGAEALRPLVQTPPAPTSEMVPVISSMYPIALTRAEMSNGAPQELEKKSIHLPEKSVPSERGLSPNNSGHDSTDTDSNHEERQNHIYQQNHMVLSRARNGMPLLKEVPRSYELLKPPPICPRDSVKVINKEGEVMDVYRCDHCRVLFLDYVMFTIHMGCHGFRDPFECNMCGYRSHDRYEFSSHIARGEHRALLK
# T3 sequence (Q96SW2 whole entry): as the sequence (Q96SW2 whole entry) above
# T3 sequence (Q16531 whole entry partner): as the sequence (Q16531 whole entry partner) above
# CK1α = target: T4, CK1α (Homo sapiens, UniProt P48729+Q96SW2); assay: as above; format: cell-based
# T4 construct: effects of the compounds of the present disclosure on the expression of target proteins in cells; endogenous in cells; host or cells: human PBMCs (Milecell Biotechnologies)
# T4 sequence (P48729 whole entry): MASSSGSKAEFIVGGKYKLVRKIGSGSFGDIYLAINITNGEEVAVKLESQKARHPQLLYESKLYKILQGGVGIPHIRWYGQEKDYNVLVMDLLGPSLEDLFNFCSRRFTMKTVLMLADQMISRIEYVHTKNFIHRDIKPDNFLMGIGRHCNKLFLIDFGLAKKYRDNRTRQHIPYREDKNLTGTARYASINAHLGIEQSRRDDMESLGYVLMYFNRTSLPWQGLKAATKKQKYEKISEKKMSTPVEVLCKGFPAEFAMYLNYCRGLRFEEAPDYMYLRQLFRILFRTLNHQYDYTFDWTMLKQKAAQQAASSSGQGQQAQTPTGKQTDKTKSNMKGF
# T4 sequence (Q96SW2 whole entry): as the sequence (Q96SW2 whole entry) above
# T4 sequence (Q16531 whole entry partner): as the sequence (Q16531 whole entry partner) above
# IKZF2 = target: T5, IKZF2 (Homo sapiens, UniProt Q96SW2+Q9UKS7); assay: as above; format: cell-based
# T5 construct: effects of the compounds of the present disclosure on the expression of target proteins in cells; endogenous in cells; host or cells: human PBMCs (Milecell Biotechnologies)
# T5 sequence (Q9UKS7 whole entry): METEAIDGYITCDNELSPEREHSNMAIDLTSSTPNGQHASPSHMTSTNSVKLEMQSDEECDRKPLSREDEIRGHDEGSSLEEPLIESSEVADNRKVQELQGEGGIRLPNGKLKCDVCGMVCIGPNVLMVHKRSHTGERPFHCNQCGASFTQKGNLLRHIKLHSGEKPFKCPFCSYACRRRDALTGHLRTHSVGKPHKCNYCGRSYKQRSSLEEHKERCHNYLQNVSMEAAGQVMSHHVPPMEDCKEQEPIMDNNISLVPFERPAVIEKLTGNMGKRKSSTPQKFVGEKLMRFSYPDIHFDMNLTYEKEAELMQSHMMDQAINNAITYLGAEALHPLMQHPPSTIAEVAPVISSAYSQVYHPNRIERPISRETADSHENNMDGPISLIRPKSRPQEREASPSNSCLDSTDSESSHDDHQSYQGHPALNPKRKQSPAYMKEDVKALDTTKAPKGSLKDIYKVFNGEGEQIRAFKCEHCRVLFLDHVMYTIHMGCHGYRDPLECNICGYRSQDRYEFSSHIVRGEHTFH
# T5 sequence (Q96SW2 whole entry): as the sequence (Q96SW2 whole entry) above
# T5 sequence (Q16531 whole entry partner): as the sequence (Q16531 whole entry partner) above
# [2] = system: Human acute T lymphocytic leukemia cell (Molt4); assay: Tumor cell proliferation inhibition (CellTiter-Meiluncell luminescent cell viability assay); conditions: MOLT-4, 96 h; for inhibition at 0.01 µM: read-out: Inhibition Rate at 10 nM (%); for inhibition at 0.5 µM: read-out: Inhibition Rate at 500 nM (%)
# Description: The tumor cells used herein were cultured in a cell culture medium listed in table 2 at 37°C in an incubator with 5% CO2. Prior to experimentation, all cell lines used were correctly identified by STR profiling, and tested negative for mycoplasma contamination using a mycoplasma detection kit through routine screenings.
# The IC50 values of the compounds of the present disclosure (including the compounds in Table 1 and Examples) were determined using the CellTiter-Meiluncell Luminescent Cell Viability Assay Kit from Dalian Meilun Biotech Co., Ltd. The detailed procedure is as follows: Tumor cells were seeded in 96-well cell culture plates at the densities specified in Table 3. On the following day, the test compounds of the present disclosure were subjected to serial dilution. The dilution can be performed according to one of the following two methods: • (1) The first dilution method: The test compounds of the present disclosure (including the compounds in Table 1 and Examples) were subjected to 5-fold serial dilutions starting from a highest concentration of 2000 µM, resulting in a total of 9 concentrations from high to low (2000, 400, 80, 16, 3.2, 0.64, 0.128, 0.0256, 0.00512 µM). Subsequently, 0.5 µL of the test compound dilution was transferred into the 96-well plate containing the cells, with each well containing 100 µL of cell culture medium. […] Into the 96-well plate, the diluted test compounds and corresponding detection reagents were added, resulting in final test compound concentrations of 500 nM and 10 nM, respectively. The experimental procedure is described below using the diluted 2 µM test compound as an example.
# 0.5 µL of the aforementioned diluted compound of the present disclosure (including the compounds in Table 1 and Examples) was added to the seeded cells in 100 µL of medium, yielding a final test compound concentration of 10 nM. After the cells were treated with the compounds of the present disclosure for a specified period, the cell viability assay reagent was added to the culture medium according to the kit's instructions to determine cell viability. […] All controls were treated using the same procedure as the compounds of the present disclosure. The growth inhibition curves for the compounds of the present disclosure were plotted using Prism GraphPad software, and the IC50 values were calculated therefrom.
# [3] = system: Human multiple myeloma cell (MM.1S); assay: as above; conditions: for inhibition at 0.01 µM / inhibition at 0.5 µM: Homo sapiens, MM1.S, 96 h; for inhibition at 0.01 µM: read-out: Inhibition Rate at 10 nM (%); for inhibition at 0.5 µM: read-out: Inhibition Rate at 500 nM (%)
# [4] = target: T6, human Cereblon WT GST-tagged protein (Homo sapiens, UniProt Q96SW2); assay: CRBN-binding affinity, HTRF (CEREBLON BINDING kit); conditions: for inhibition at 0.5 µM: read-out: Inhibition Rate at 0.5 µM (%); for inhibition at 2 µM: read-out: Inhibition Rate at 2 µM (%)
# T6 construct: purchased CISBIO 64BDCRBNPEH
# T6 sequence (Q96SW2 whole entry): as the sequence (Q96SW2 whole entry) above
# [5] = Western blot, 24 hours of compound treatment, compounds tested at 50 nM and 500 nM (concentration for the table not stated)
# [6] = 24 hours treatment, compounds at 50 nM and 500 nM (concentration behind the class not stated)
Compound,GSPT1 substrate protein remaining % (GSPT1; [5]),inhibition at 0.01 µM [1],inhibition at 0.5 µM [1],IKZF 1 substrate protein remaining % (IKZF1; [5]),Wee1 substrate protein remaining % (WEE1; [5]),IKZF3 substrate protein remaining % (IKZF3; [5]),CK1α substrate protein remaining % (CK1α; [5]),IKZF2 substrate protein remaining % (IKZF2; [5]),inhibition at 0.01 µM [2],inhibition at 0.5 µM [2],inhibition at 0.01 µM [3],inhibition at 0.5 µM [4],inhibition at 2 µM [4],GSPT1 substrate protein remaining % (GSPT1; [6]),IKZF 1 substrate protein remaining % (IKZF1; [6]),Wee1 substrate protein remaining % (WEE1; [6]),IKZF3 substrate protein remaining % (IKZF3; [6]),CK1α substrate protein remaining % (CK1α; [6]),IKZF2 substrate protein remaining % (IKZF2; [6]),other results
"O=C1CCC(N2Cc3cc(CN4CCN(c5cc(Cl)ccc5Cl)CC4)ccc3C2=S)C(=O)N1 (centres unmarked) [GT-08611, 3-(5-((4-(2,5-dichlorophenyl)piperazin-1-yl)methyl)-1-thioxoisoindolin-2-yl)piperidine-2,6-dione]",A (0% ≤ substrate protein remaining % ≤ 80%),18 to 25%,80 to 100%,B (80%< substrate protein remaining %≤ 100%),B (80%< substrate protein remaining %≤ 100%),B (80%< substrate protein remaining %≤ 100%),B (80%< substrate protein remaining %≤ 100%),B (80%< substrate protein remaining %≤ 100%),0 to 5%,70 to 80%,20 to 30%,30 to 40%,60 to 80%,,,,,,,inhibition at 0.5 µM [3]: 50 to 60%
"Cc1cc(N2CCN(Cc3ccc4c(c3)CN(C3CCC(=O)NC3=O)C4=S)CC2)cs1 (centres unmarked) [GT-08170, 3-(5-((4-(5-methylthiophen-3-yl)piperazin-1-yl)methyl)-1-thioxoisoindolin-2-yl)piperidine-2,6-dione]",,25 to 30%,60 to 80%,,,,,,5 to 10%,60 to 70%,,60 to 80%,80 to 100%,A (0% ≤ substrate protein remaining % ≤ 80%),B (80%< substrate protein remaining %≤ 100%),B (80%< substrate protein remaining %≤ 100%),A (0% ≤ substrate protein remaining % ≤ 80%),A (0% ≤ substrate protein remaining % ≤ 80%),A (0% ≤ substrate protein remaining % ≤ 80%),
"COc1ccccc1N1CCN(Cc2ccc3c(c2)CN(C2CCC(=O)NC2=O)C3=S)CC1 (centres unmarked) [GT-08236, 3-(5-((4-(2-methoxyphenyl)piperazin-1-yl)methyl)-1-thioxoisoindolin-2-yl)piperidine-2,6-dione]",A (0% ≤ substrate protein remaining % ≤ 80%),10 to 18%,60 to 80%,B (80%< substrate protein remaining %≤ 100%),B (80%< substrate protein remaining %≤ 100%),B (80%< substrate protein remaining %≤ 100%),B (80%< substrate protein remaining %≤ 100%),B (80%< substrate protein remaining %≤ 100%),10 to 20%,40 to 50%,,40 to 53%,80 to 100%,,,,,,,
"Cc1ccc(Cl)cc1N1CCN(Cc2ccc3c(c2)CN(C2CCC(=O)NC2=O)C3=S)CC1 (centres unmarked) [GT-08615, 3-(5-((4-(5-chloro-2-methylphenyl)piperazin-1-yl)methyl)-1-thioxoisoindolin-2-yl)piperidine-2,6-dione]",A (0% ≤ substrate protein remaining % ≤ 80%),,,B (80%< substrate protein remaining %≤ 100%),B (80%< substrate protein remaining %≤ 100%),B (80%< substrate protein remaining %≤ 100%),B (80%< substrate protein remaining %≤ 100%),B (80%< substrate protein remaining %≤ 100%),5 to 10%,50 to 60%,10 to 20%,30 to 40%,60 to 80%,,,,,,,inhibition at 0.5 µM [3]: 40 to 50%
"O=C1CCC(N2Cc3cc(CN4CCN(c5ccnc(Cl)c5Br)CC4)ccc3C2=S)C(=O)N1 (centres unmarked) [GT-09240, 3-(5-((4-(3-bromo-2-chloropyridin-4-yl)piperazin-1-yl)methyl)-1-thioxoisoindolin-2-yl)piperidine-2,6-dione]",,,,,,,,,50 to 60%,30 to 40%,,80 to 100%,80 to 100%,A (0% ≤ substrate protein remaining % ≤ 80%),A (0% ≤ substrate protein remaining % ≤ 80%),B (80%< substrate protein remaining %≤ 100%),B (80%< substrate protein remaining %≤ 100%),B (80%< substrate protein remaining %≤ 100%),B (80%< substrate protein remaining %≤ 100%),
"O=C1CCC(N2Cc3c(CN4CCN(Cc5ccc(-c6ccc(Cl)cc6)cc5)CC4)cccc3C2=S)C(=O)N1 (centres unmarked) [GT-08960, 3-(4-((4-((4'-chloro-[1,1'-biphenyl]-4-yl)methyl)piperazin-1-yl)methyl)-1-thioxoisoindolin-2-yl)piperidine-2,6-dione]",,,,,,,,,20 to 30%,40 to 50%,,53 to 60%,80 to 100%,,,,,,,
"O=C1CCC(N2Cc3cc(CN4CCN(c5ccc(Cl)c(Cl)c5)CC4)ccc3C2=S)C(=O)N1 (centres unmarked) [GT-08612, 3-(5-((4-(3,4-dichlorophenyl)piperazin-1-yl)methyl)-1-thioxoisoindolin-2-yl)piperidine-2,6-dione]",A (0% ≤ substrate protein remaining % ≤ 80%),,,B (80%< substrate protein remaining %≤ 100%),B (80%< substrate protein remaining %≤ 100%),B (80%< substrate protein remaining %≤ 100%),B (80%< substrate protein remaining %≤ 100%),B (80%< substrate protein remaining %≤ 100%),10 to 20%,50 to 60%,,30 to 40%,60 to 80%,,,,,,,
"Cc1ccsc1C1CCN(Cc2ccc3c(c2)CN(C2CCC(=O)NC2=O)C3=S)CC1 (centres unmarked) [GT-08323, 3-(5-((4-(3-methylthiophen-2-yl)piperidin-1-yl)methyl)-1-thioxoisoindolin-2-yl)piperidine-2,6-dione]",,-5 to 0%,40 to 60%,,,,,,,,0 to 5%,40 to 53%,80 to 100%,A (0% ≤ substrate protein remaining % ≤ 80%),B (80%< substrate protein remaining %≤ 100%),B (80%< substrate protein remaining %≤ 100%),B (80%< substrate protein remaining %≤ 100%),A (0% ≤ substrate protein remaining % ≤ 80%),B (80%< substrate protein remaining %≤ 100%),"Inhibition Rate at 500 nM (%) ([3]; MM.1S, 500 nM, 96 hours): la7"
